From PubChem BioAssay AID264 (DTP/NCI, 2004)
“And” between values parts separate entries of the source, which are not always exact repeats. Equal values may be shown once. Records with an inconclusive call do not appear.

Test system: nude mice, LX-1 lung xenograft intrarenal, tumor weight T/C
Test: NCI In Vivo Anticancer Drug Screen. Data for tumor model Human Lung LX-1 Xenograft (intrarenal inoculation) in NU/NU Swiss (nude) mice
Details: endpoint: mean tumor weight change, higher = larger tumour
In short: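 Tumor-bearing mice receive test compound or vehicle; tumor size is then measured in each group. The treated value is divided by the vehicle value to give T/C.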

[1] = dose: 50.0 mg/kg/injection, schedule: Q04DX003 (sc), vehicle: saline with Tween-80
[2] = dose: 50.0 mg/kg/injection, schedule: Q01DX010 (sc), vehicle: Klucel (hydroxypropylcellulose) (HPC)
[3] = dose: 50.0 mg/kg/injection, schedule: Q04DX003 (sc), vehicle: Klucel (hydroxypropylcellulose) (HPC)
[4] = dose: 1200.0 mg/kg/injection, schedule: Q04DX003 (sc), vehicle: saline with Tween-80
[5] = dose: 300.0 mg/kg/injection, schedule: Q04DX003 (sc), vehicle: saline with Tween-80
[6] = dose: 600.0 mg/kg/injection, schedule: Q04DX003 (sc), vehicle: saline with Tween-80

Structure (SMILES): O=c1n(CC2CO2)c(=O)n(CC2CO2)c(=O)n1CC1CO1 (stereo not drawn)
- T/C (dose: 12.5 mg/kg/injection, schedule: Q01DX010 (sc), vehicle: saline): 65 % of control
- T/C (dose: 25.0 mg/kg/injection, schedule: Q01DX010 (sc), vehicle: saline): 56 % of control
- T/C (dose: 25.0 mg/kg/injection, schedule: Q04DX003 (sc), vehicle: saline with Tween-80): 94 % of control
- T/C [1]: 100 % of control

Structure (SMILES): Oc1c(Cl)cc(Cl)cc1C1N2CCCCC2C2c3cccn3-c3ccccc3N21 (stereo not drawn)
- T/C (dose: 150.0 mg/kg/injection, schedule: Q04DX003 (sc), vehicle: Klucel (hydroxypropylcellulose) (HPC)): 65 % of control
- T/C (dose: 300.0 mg/kg/injection, schedule: Q04DX003 (sc), vehicle: Klucel (hydroxypropylcellulose) (HPC)): 69 % of control
- T/C (dose: 1200.0 mg/kg/injection, schedule: Q04DX003 (sc), vehicle: Klucel (hydroxypropylcellulose) (HPC)): 74 % of control

Structure (SMILES): Cc1cn(C2CC(F)C(CO)O2)c(=O)[nH]c1=O (stereo not drawn)
- T/C (dose: 150.0 mg/kg/injection, schedule: Q04DX003 (sc), vehicle: suspension in saline): 54 % of control
- T/C (dose: 300.0 mg/kg/injection, schedule: Q04DX003 (sc), vehicle: suspension in saline): 85 % of control
- T/C (dose: 600.0 mg/kg/injection, schedule: Q04DX003 (sc), vehicle: suspension in saline): 56 % of control
- T/C (dose: 1200.0 mg/kg/injection, schedule: Q04DX003 (sc), vehicle: suspension in saline): 37 % of control

Structure (SMILES): COC1/C=C\C=C(/C)C(=O)NC2=CC(=O)C=C(C2=O)C(OC)C(C)CC(OC)C(OC)C(C)/C=C(/C)C1OC(N)=O (stereo not drawn)
- T/C (dose: 4.5 mg/kg/injection, schedule: Q04DX003 (sc), vehicle: Klucel (hydroxypropylcellulose) (HPC)): 82 % of control

Structure (SMILES): C=CC(=O)N1CN(C(=O)C=C)CN(C(=O)C=C)C1
- T/C (dose: 6.25 mg/kg/injection, schedule: Q01DX010 (sc), vehicle: saline with Tween-80): 92 % of control
- T/C (dose: 12.5 mg/kg/injection, schedule: Q01DX010 (sc), vehicle: saline with Tween-80): 110 % of control
- T/C (dose: 25.0 mg/kg/injection, schedule: Q01DX010 (sc), vehicle: saline with Tween-80): 67 % of control

Structure (SMILES): c1ccc2c(NCCCCCCNc3c4ccccc4nc4ccccc34)c3ccccc3nc2c1
- T/C (dose: 5.0 mg/kg/injection, schedule: Q01DX010 (sc), vehicle: Klucel (hydroxypropylcellulose) (HPC)): 102 % of control

Structure (SMILES): CCC(=O)N(C)[C@@H](C)C(=O)O[C@H]1CC(=O)N(C)c2cc(cc(OC)c2Cl)C/C(C)=C/C=C[C@@H](OC)[C@@]2(O)C[C@H](OC(=O)N2)[C@@H](C)[C@@H]2O[C@@]12C
- T/C (dose: 0.13 mg/kg/injection, schedule: Q01DX010 (sc), vehicle: saline + alcohol): 106 % of control
- T/C (dose: 0.25 mg/kg/injection, schedule: Q01DX010 (sc), vehicle: saline + alcohol): 31 % of control

Structure (SMILES): Cc1cc(N(CCOS(C)(=O)=O)CCOS(C)(=O)=O)ccc1C=Nc1ccc(-c2nc(Cc3ccccc3)sc2C)cc1
- T/C [2]: 12 % of control and 26 % of control
- T/C (dose: 100.0 mg/kg/injection, schedule: Q01DX010 (sc), vehicle: Klucel (hydroxypropylcellulose) (HPC)): 5 % of control (2×) and 11 % of control
- T/C (dose: 200.0 mg/kg/injection, schedule: Q01DX010 (sc), vehicle: Klucel (hydroxypropylcellulose) (HPC)): 1 % of control
- T/C (dose: 400.0 mg/kg/injection, schedule: Q01DX010 (sc), vehicle: Klucel (hydroxypropylcellulose) (HPC)): 1 % of control

Structure (SMILES): Cc1noc(N)c1N
- T/C (dose: 600.0 mg/kg/injection, schedule: Q04DX003 (sc), vehicle: water): 106 % of control
- T/C (dose: 1200.0 mg/kg/injection, schedule: Q04DX003 (sc), vehicle: water): 94 % of control

Structure (SMILES): C=CC(C)(C)n1cc(C2=C(O)C(=O)C(c3cn(C(C)(C)C=C)c4ccccc34)=C(O)C2=O)c2ccccc21
- T/C [3]: 63 % of control
- T/C (dose: 100.0 mg/kg/injection, schedule: Q04DX003 (sc), vehicle: Klucel (hydroxypropylcellulose) (HPC)): 71 % of control
- T/C (dose: 200.0 mg/kg/injection, schedule: Q04DX003 (sc), vehicle: Klucel (hydroxypropylcellulose) (HPC)): 124 % of control
- T/C (dose: 400.0 mg/kg/injection, schedule: Q04DX003 (sc), vehicle: Klucel (hydroxypropylcellulose) (HPC)): 83 % of control

Structure (SMILES): CN(C)CC(Cl)CCl (stereo not drawn)
- T/C (dose: 300.0 mg/kg/injection, schedule: Q04DX003 (sc), vehicle: saline): 49 % of control

Structure (SMILES): c1cnc2ncncc2n1
- T/C [1]: 150 % of control
- T/C (dose: 100.0 mg/kg/injection, schedule: Q04DX003 (sc), vehicle: saline with Tween-80): 81 % of control

Structure (SMILES): C[Si](C)(CCl)N[Si](C)(C)CCl
- T/C [4]: 81 % of control

Structure (SMILES): COC(C(=O)C(O)C(C)O)C1Cc2cc3cc(OC4CC(OC(C)=O)C(OC5CC(O)C(OC)C(C)O5)C(C)O4)cc(O)c3c(O)c2C(=O)C1OC1CC(OC2CC(OC3CC(C)(O)C(OC(=O)C(C)C)C(C)O3)C(O)C(C)O2)C(O)C(C)O1 (stereo not drawn)
- T/C (dose: 1.0 mg/kg/injection, schedule: Q04DX003 (sc), vehicle: saline with Tween-80): 77 % of control
- T/C (dose: 2.0 mg/kg/injection, schedule: Q04DX003 (sc), vehicle: saline with Tween-80): 58 % of control
- T/C (dose: 4.0 mg/kg/injection, schedule: Q01DX010 (sc), vehicle: saline with Tween-80): 12 % of control and 30 % of control
- T/C (dose: 4.0 mg/kg/injection, schedule: Q04DX003 (sc), vehicle: saline with Tween-80): 50 % of control

Structure (SMILES): [N-]=[N+]=C1N=CN=C1c1ncn[nH]1
- T/C (dose: 12.5 mg/kg/injection, schedule: Q01DX010 (sc), vehicle: Klucel (hydroxypropylcellulose) (HPC)): 153 % of control
- T/C [2]: 55 % of control

Structure (SMILES): NC(=S)N/N=C\c1ncccc1OCc1cccc(N)c1
- T/C [5]: 158 % of control
- T/C [6]: 159 % of control
- T/C [4]: 105 % of control
- T/C (dose: 2400.0 mg/kg/injection, schedule: Q04DX003 (sc), vehicle: saline with Tween-80): 96 % of control

Structure (SMILES): Nc1ncn(C2OC(CO)C(O)C2O)c(=O)n1 (stereo not drawn)
- T/C (dose: 0.19 mg/kg/injection, schedule: Q01DX010 (sc), vehicle: saline): 164 % of control
- T/C (dose: 0.75 mg/kg/injection, schedule: Q01DX010 (sc), vehicle: saline): 40 % of control
- T/C (dose: 10.0 mg/kg/injection, schedule: Q04DX003 (sc), vehicle: saline): 101 % of control
- T/C (dose: 20.0 mg/kg/injection, schedule: Q04DX003 (sc), vehicle: saline): 52 % of control
- T/C (dose: 100.0 mg/kg/injection, schedule: Q04DX003 (sc), vehicle: saline): 86 % of control
- T/C (dose: 200.0 mg/kg/injection, schedule: Q04DX003 (sc), vehicle: saline): 64 % of control
- T/C (dose: 200.0 mg/kg/injection, schedule: Q04DX003 (sc), vehicle: suspension in saline): 45 % of control
- T/C (dose: 400.0 mg/kg/injection, schedule: Q04DX003 (sc), vehicle: saline): 35 % of control
- T/C (dose: 800.0 mg/kg/injection, schedule: Q04DX003 (sc), vehicle: saline): 16 % of control
- T/C (dose: 800.0 mg/kg/injection, schedule: Q04DX003 (sc), vehicle: suspension in saline): 19 % of control and 28 % of control
- T/C (dose: 1228.8 mg/kg/injection, schedule: Q04DX003 (sc), vehicle: suspension in saline): -72 % of control
- T/C (dose: 1600.0 mg/kg/injection, schedule: Q04DX003 (sc), vehicle: suspension in saline): 12 % of control and 14 % of control
- T/C (dose: 1920.0 mg/kg/injection, schedule: Q04DX003 (sc), vehicle: suspension in saline): -100 % of control
- T/C (dose: 2400.0 mg/kg/injection, schedule: Q04DX003 (sc), vehicle: suspension in saline): -100 % of control

Structure (SMILES): O=C(O)C1CSCN1 (stereo not drawn)
- T/C (dose: 50.0 mg/kg/injection, schedule: Q01DX010 (sc), vehicle: water): 86 % of control
- T/C (dose: 100.0 mg/kg/injection, schedule: Q01DX010 (sc), vehicle: water): 68 % of control

Structure (SMILES): COC(=Nc1ccccc1)SSC(C)C
- T/C [5]: 120 % of control
- T/C [6]: 94 % of control
- T/C [4]: 107 % of control

Structure (SMILES): O=C(CO)c1ccc([N+](=O)[O-])cc1
- T/C (dose: 50.0 mg/kg/injection, schedule: Q01DX010 (sc), vehicle: saline with Tween-80): 78 % of control
- T/C (dose: 100.0 mg/kg/injection, schedule: Q01DX010 (sc), vehicle: saline with Tween-80): 86 % of control
- T/C (dose: 200.0 mg/kg/injection, schedule: Q01DX010 (sc), vehicle: saline with Tween-80): 103 % of control
- T/C (dose: 400.0 mg/kg/injection, schedule: Q01DX010 (sc), vehicle: saline with Tween-80): 70 % of control

Structure (SMILES): CNC(=O)OCc1c(COC(=O)NC)c(C)n(-c2ccc(OC)cc2)c1C
- T/C (dose: 25.0 mg/kg/injection, schedule: Q01DX010 (sc), vehicle: Klucel (hydroxypropylcellulose) (HPC)): 51 % of control
- T/C [2]: 59 % of control and 63 % of control
- T/C [3]: 38 % of control
- T/C (dose: 800.0 mg/kg/injection, schedule: Q04DX003 (sc), vehicle: Klucel (hydroxypropylcellulose) (HPC)): 87 % of control

Structure (SMILES): OCCN1CCN(CC/C=C2/c3ccccc3Sc3ccc(Cl)cc32)CC1
- T/C (dose: 6.25 mg/kg/injection, schedule: Q04DX003 (sc), vehicle: saline): 78 % of control
- T/C (dose: 12.5 mg/kg/injection, schedule: Q04DX003 (sc), vehicle: saline): 68 % of control
- T/C (dose: 25.0 mg/kg/injection, schedule: Q04DX003 (sc), vehicle: saline): 52 % of control
- T/C (dose: 50.0 mg/kg/injection, schedule: Q04DX003 (sc), vehicle: saline): 43 % of control
